Measured values taken from patent US8859511B2, “Proliferation inhibitor of Helicobacter pylori bacteria” (The Noguchi Institute, priority 2008, dated 2014).
One block for each molecule: values may come before it.

Assays:
[1] = tested on: H. pylori bacteria (ATCC 43504); experiment: H. pylori bacteria-proliferation inhibitory effect under in vitro (OD values at 600 nm); type: cell-based, Helicobacter pylori
[2] = tested on: H. pylori bacteria (ATCC 43504 strain); experiment: Count of viable H. pylori bacteria (colony count) from stomach of orally infected meriones unguiculatus; type: in vivo
From the text: Antibacterial activities of GlcNAc derivatives towards H. pylori bacteria were investigated under in vivo by an experimental system using meriones unguiclatus infected orally with H. pylori bacteria.
Type strain of H. pylori bacteria (ATCC 43504 strain) was used as strain for infection. After stock strain thereof was recovered in Brain Heart Infusion (BHI) culture medium, which is available from Nissui Pharmaceutical Co., Ltd., including 10% horse serum, which is available from Dainippon Sumitomo Pharma Co., Ltd., and then cultured in the culture medium at 37° C. under microaerophilic condition using a microaerophilic incubator for 3 days. Finally the concentration thereof was adjusted to approximately 5×10^6 colony-forming-unit/mL (CFU/mL).
The meriones unguiculatus were fasted from 24 hours earlier of infection of Helicobacter pylori bacteria to 4 hours later of the infection thereof.
Approximately 1.0 mL of the liquid culture medium including Helicobacter pylori bacteria was administrated orally as 5×10^6 CFU/individual-animal to the fasted meriones unguiculatus. The day of infection was defined as initial day (i.e. Day 0)
Specimens prepared by using GlcNAcl-beta-O-Et of N-acetyl-glucosamine derivative according to following concentration of each group were administered.
Number of animal: 10 animals per one group
Means for administration: dietary administration
Stomach was respectively isolated from thus 10 animals of each group, and added into a centrifuging tube containing 5 mL of a phosphate buffer solution (PBS) to be homogenized with Polytron Homogenizer. 0.1 mL of the obtained homogenate was spread on Poamedia Vi Helico-S agar medium which is available from Eiken Chemical Co., Ltd. And then the bacterium were cultured at 37° C. under microaerophilic condition as same as above-mentioned incubation for culture. The formed violet colonies were counted.
They were carried out by above-mentioned statistical procedure.

[3] = Body weight and general remarks of symptoms of infected meriones unguiculatus under dietary administration
Procedure: 4 weeks-old male meriones unguiculatus (SPF: specific-pathogen free), which were purchased from Kyudo Co., Ltd. (Br. Yoshitomi), were preliminarily reared for 23 days and then used for the experiments. The meriones unguiculatus were reared temperature of 24 plus or minus 3° C. and under relative humidity of 55 plus or minus 15% in all room for infected animals with conditions of lighting from a.m. 7 to p.m. 7 and ventilating 18 times per hour during preliminarily reared period and experiment period. 2 or 3 meriones unguiculatus were reared in a cage. All meriones unguiculates could freely get purified water as drinkable water and powdery feed MF as dry feed which is available from Oriental Yeast Co., Ltd. Incidentally the meriones unguiculatus were marked by application of dyestuff of picric acid solution for individual discrimination.
Amount of administration: 0.3% of the specimen blended with the powdery feed
The day of infection was defined as day 0. At 1st, 3rd, 6th, 10th, 13th, 17th, 20th, 24th, and 26th days, body weight was measured by a weight scale respectively.
Daily variance of the general remarks of symptoms thereof was observed.
As regards to body weight and count of colonies, average plus/minus standard error thereof in all groups was respectively calculated. […]

[4] = type: physicochemical
Procedure: […]-beta-O-Et in a defined constant amount of the H. pylori bacteria-containing culture medium, which was cultured for 3 days, was measured by high performance liquid chromatography. A concentration of […]-beta-O-Et therein was determined by conversion using a calibration curve which was beforehand prepared from various definite concentrations of standard […]-beta-O-Et and peak areas of high pressure liquid chromatogram thereof. According to the determination, 6% of […]-beta-O-Et in the defined constant amount of the H. pylori bacteria-containing culture medium was reduced in comparison with initial concentration thereof. Consequently it was obvious that 6% of […]-beta-O-Et in the H. pylori bacteria-containing culture medium was decomposed to GlcNAc and ethanol (EtOH).

Compound: CC(=O)N[C@H]1C(O)O[C@H](CO)[C@@H](O)[C@@H]1O (stereo partly drawn) [GlcNAc, N-acetyl-glucosamine, reference compound]
proliferation inhibitory effect ([1]; concentration as high as 50 mM, FIG. 2): does not show any proliferation inhibitory effect

Compound: CCO[C@H]1O[C@H](CO)[C@@H](O)[C@H](O)[C@H]1NC(C)=O [GlcNAcl-alpha-O-Et]
effect on inhibiting the proliferation of H. pylori bacteria under in vitro ([1]; in comparison with GlcNAcl-beta-O-Et, FIG. 6): did not almost indicate the effect
statistical significant difference of the count of viable bacteria vs control group ([2]; 300 mg/kg/day, FIG. 8): not observed at all
count of H. pylori bacteria reduced in comparison with the control group ([2]; 1000 mg/kg/day, FIG. 8): ⅓
statistical significant difference of the count of viable bacteria vs control group ([2]; 1000 mg/kg/day, FIG. 8): eventually observed

stability in the culture medium [4]: stable
reduction of concentration in comparison with initial concentration (decomposed to GlcNAc and ethanol) ([4]; H. pylori bacteria-containing culture medium cultured for 3 days, HPLC): 6%
Compound: CCO[C@@H]1O[C@H](CO)[C@@H](O)[C@H](O)[C@H]1NC(C)=O [GlcNAcl-beta-O-Et, Ethoxy-2-acetamide-2-deoxy-N-acetyl-beta-D-glucosaminide]
statistical significant difference of the body weight increase vs control group ([3]; 300 mg/kg/day dietary administration (0.3% in feed), to day 26, FIG. 4): not observed
abnormal general remarks of symptoms ([3]; 300 mg/kg/day dietary administration, daily observation): could not be observed
proliferation ability of H. pylori bacteria ([1]; culture medium containing not less than 5 mM): not more than 50%
proliferation ability of H. pylori bacteria ([1]; culture medium containing not less than 20 mM): not more than 5%
H. pylori bacteria proliferation inhibited ([1]; not less than 25 or 50 mM, cultivation 96 hours, vs negative control, FIG. 1): not less than 50%
count of H. pylori bacteria reduced in comparison with the control group ([2]; 300 mg/kg/day dietary, all individuals, FIG. 5(a)): ½ to ⅓
count of H. pylori bacteria reduced in comparison with the control group ([2]; 300 mg/kg/day dietary, outliers rejected by Smirnov-Grubbs test, FIG. 5(b)): ⅙

Compound: CCO [ethanol, reference compound]
proliferation inhibitory effect ([1]; 5 volume % (856 mM), FIG. 3): shows proliferation inhibitory effect barely
